Test results as given in patent US20170049781A1, “HSP90 INHIBITOR COMBINATIONS” (Novartis AG, priority 2008, published 2017).

Tests used:
Assay type in all cases: cell-based, human
[1] = tested on: phosphorylated AKT (P-AKT(S473) and P-AKT(T308)); test: Western blot of AKT phosphorylation in BT474 breast tumor cells
Method: (§1) Two cancer derived cell lines are used (BT474 and MDA-MB-231). These are human breast carcinoma cell lines. The cell lines are commercially available from American Type Culture Collection (ATCC). BT474 cells are maintained in Hybri-Care medium (ATCC) supplemented with 10% v/v fetal calf serum and 2 mM L-glutamine. MDB-MB-231 cells are grown in RPMI 1640 medium (Animed, Allschwil, Switzerland) supplemented with 10% v/v fetal calf serum and 2 mM L-glutamine. The media are supplemented with 100 microgramm/ml penicillin/streptomycin and cells are maintained at 37° C. in 5% CO2.
(§2) After division and medium change, cells from stock culture are seeded at a density of 3.3×10^4 cells/cm^2 (BT474) and 1.2×10^4 cells/cm^2 (MDB-MB-231) on cell plates and incubated for 48 hours at 37° C. and 5% CO2 prior to the treatment with DMSO vehicle, 20 nM everolimus (RAD001) and/or various concentrations of AUY922 (compound 1) for 24 hours. To prepare cell lysates culture plates are washed once with ice-cold phosphor buffered saline (PBS) containing 1 mM phenylmethylsulfonyl fluoride (PMSF) and once with ice-cold extraction buffer (50 mM Hepes pH 7.4, 150 mM NaCl, 25 mM beta-glycerophosphate, 25 mM NaF, 5 mM EGTA, 1 mM EDTA, 15 mM PPi, 2 mM sodium orthovanadate, 10 mM sodium molybdate, leupeptin (10 microgramm/ml), aprotinin (10 microgramm/ml), 1 mM DTT and 1 mM PMSF. Cells are extracted in the same buffer, containing 1% NP-40. The extracts are homogenized, cleared by centrifugation, aliquoted and frozen at −80° C. Protein concentration is determined with the BCA Protein Assay (Pierce, Rockford, Ill., USA).
(§3) Twenty micrograms of cell extracts are resolved electrophoretically on 12% denaturing sodium dodecyl sulfate polyacrylamide gels (SDS-PAGE) and transferred to polyvinylidene difluoride filters by wet-blotting (1 hour at 250 mA) and probed overnight at 4° C. with the following primary antibodies:
(§4) anti-phospho-Akt (Ser473) (clone 14-05; 1:2000) obtained from DAKO (Glostrup, Denmark) and diluted in PBS, 0.5% v/v Tween. […]

[2] = tested on: phosphorylated AKT (P-AKT(S473), T308); test: Western blot of AKT phosphorylation in MDA-MB-231 breast tumor cells; conditions: MDA-MB-231 cells
Method: as §1, §2, §3, §4

AKT = test: Western blot of AKT levels in MDA-MB-231 breast tumor cells; conditions: MDA-MB-231 cells, 100 nM Compound I
Method: as §1
After division and medium change, cells from stock culture are seeded at a density of 3.3×10^4 cells/cm^2 (BT474) and 1.2×10^4 cells/cm^2 (MDB-MB-231) on cell plates and incubated for 48 hours at 37° C. and 5% CO2 prior to the treatment with DMSO vehicle, 20 nM everolimus (RAD001) and/or various concentrations of AUY922 (compound 1) for 24 hours. […]

Row | SMILES | AKT phosphorylation (P-AKT(S473) and P-AKT(T308)) on addition of RAD001 in the presence of compound I ([1]; BT474 cells, 20 nM RAD001 in the presence of 50-100 nM compound I (combination)) | levels of phosphorylated AKT (P-AKT(S473) and P-AKT(T308)) compared to an untreated control ([1]; BT-474 cells, 20 nM RAD001, 24 hours) | levels of phosphorylated AKT (P-AKT(S473)) compared to an untreated control ([2]; 20 nM RAD001, 24 hours) | phosphorylation of AKT at amino acid residue T308 on addition of RAD001 in the presence of compound I ([2]; 20 nM RAD001 in the presence of 50-100 nM compound I (combination)) | AKT levels (AKT) | AKT phosphorylation (P-AKT(S473) and P-AKT(T308)) ([1]; BT474 cells, 50-100 nM compound I, 24 hours) | AKT phosphorylation (P-AKT(S473)) ([2]; 50-100 nM compound I, 24 hours)
1 | CO[C@H]1C[C@@H]2CC[C@@H](C)[C@@](O)(O2)C(=O)C(=O)N2CCCC[C@H]2C(=O)O[C@H]([C@H](C)C[C@@H]2CC[C@@H](OCCO)[C@H](OC)C2)CC(=O)[C@H](C)/C=C(\C)[C@@H](O)[C@@H](OC)C(=O)[C@H](C)C[C@H](C)/C=C/C=C/C=C/1C [RAD001, 40-O-(2-hydroxyethyl)-rapamycin] | did not cause increase in AKT phosphorylation | increased levels of phosphorylated AKT | increased levels of phosphorylated AKT | did not cause increased phosphorylation of AKT | – | – | –
2 | COc1cccc(-c2ccccc2[C@H]2Cc3nc(N)nc(C)c3C(=O)N2)n1 [compound I, (R)-2-amino-7-[2-(6-methoxy-pyridin-2-yl)-phenyl]-4-methyl-7,8-dihydro-6H-pyrido[4,3-d]pyrimidin-5-one] | – | – | – | – | slightly decreased | diminished | diminished
